# Legend:
# [1] = system: BUBR1 mRNA; assay: BUBR1 mRNA stability assay with Actinomycin D; format: cell-based, human; conditions: HGADFN003 cells, UPCP together with Act D
# Method: RNA preparation was performed as described. Total RNA was extracted using Trizol reagent (TaKaRa) following the manufacturer’s instructions. cDNA was generated with M-MLV reverse transcriptase (Promega, catalog no. M170B). Reverse transcription with PCR (RT-PCR) was performed with SYBR Green Real-Time PCR Master Mix (TaKaRa). RT-PCR was carried out on a QuantStudio 3 Real-Time-PCR Instrument (ABI). Data were analyzed and further processed in QuantStuido Design and Analysis Software and GraphPad Prism v.7. Fold change in gene expression over control samples was calculated using the 2^–ΔΔCt method, where β-actin Ct values were used as an internal control. The primer sequences for PCR, synthesized by Comate Bioscience, were as follows: […]
# [2] = system: progerin–BUBR1 interaction; assay: CoIP of progerin and BUBR1 in HEK-293T cells; format: cell-based; conditions: HEK-293T, Flag-progerin, UPCP 6 μM, 12 μM and 18 μM
# Method: (§1) Detailed descriptions of CoIP were described previously[55],[56]. Cells were harvested and washed three times in cold PBS, then lysed in CoIP buffer (25 mM Tris-HCl (pH 7.5), 150 mM KCl, 5 mM EDTA, and 0.5% NP-40) plus protease inhibitor cocktail tablet (Roche). Incubate on ice and shock lysates on the vortex shaker 15 times for 30 s each. Microcentrifuge in 12,000g for 15 min at 4 °C, collect the supernatant, and incubate with 3 μg primary antibodies with gentle shaking overnight at 4 °C, followed by adding 20–40 μl Pure Proteome Protein A/G Mix Magnetic Beads (Millipore, catalog no. […]02) for 3 h. Wash the beads three times with 1 ml CoIP buffer for 8 min each, resuspend in 50 μl 1× loading buffer, and incubate at 100 °C for 8 min. Throw beads away and analyze by immunoblotting.
# [3] = target: T1, BUBR1 (Homo sapiens, UniProt O60566); assay: Pulldown assay of UPCP and BUBR1; format: binding; conditions: pulldown (and MST); His-UPCP 10 μg with Flag beads-BUBR1, 16 h at 4 °C
# T1 construct: made in house
# Method: Cells were harvested and lysed in buffer A mixed with protease inhibitor cocktail tablet (Roche) after 48 h. […] The beads were washed three times using 1× Tris saline buffer (50 mM Tris-HCl (pH 7.4) and 150 mM NaCl)) for 8 min each. The bound proteins BUBR1 or PTBP1 were eluted with 3×Flag peptide (ApexBio) for 2 h at 4 °C. Finally, BUBR1 or PTBP1 was concentrated and recovered by using the Centrifugal Filters (Amicon Ultra).
# A detailed description of the pulldown assay was described previously. His-UPCP fusion protein was expression in bacteria (BL21) and induced with 0.5 mM isopropyl-β-D-thio-galactoside for 16 h at 16 °C. The bacteria were harvested and lysed in TEN buffer (20 mM Tris-HCl (pH7.4), 0.1mM EDTA, 100 mM NaCl). […] His-UPCP was eluted with Imidazole eluent (50 mM NaH2PO4, 300 mM NaCl and 50 mM Imidazole) for 2 h at 4 °C and concentrated and recovered using centrifugal filters (Amicon Ultra). For the pulldown of His-UPCP and Flag-BUBR1 or Flag-PTBP1, 10 μg His-UPCP was incubated with Flag beads (Biotool, catalog no. B23102), Flag beads-BUBR1 or Flag beads-PTBP1 respectively for 16 h at 4 °C. The beads were washed three times with PBS and added to 1× loading buffer for western blot.
# [4] = system: PTBP1–BUBR1 mRNA 3′-UTR; assay: RIP assay of PTBP1 and BUBR1 mRNA 3′-UTR in HEK-293T cells; format: cell-based; conditions: for PTBP1 enrichment on BUBR1-3'UTR (2-ΔΔCt): Fig. 4n, PTBP1+progerin+UPCP, P=0.0491 vs PTBP1+progerin
# Method: RIP and RNA pulldown assays were performed as previously described. The RIP experiment was carried out using the EZ-Magna RIP Kit (Millipore, catalog no. 17-701). The coprecipitated RNAs were extracted through Trizol reagent and detected by RT-PCR. The primer sequences for PCR, synthesized by Comate Bioscience, were as follows:
# BUBR1-3′UTR_fwd (5′-[…]-3′) and BUBR1-3′UTR_rev (5′- […]-3′).
# [5] = system: IMR90-progerin cells; assay: γH2AX foci in IMR90-progerin cells; format: cell-based, human; conditions: for γH2AX foci per cell, n>10 / γH2AX foci per cell, n≤10: IMR90-Flag-progerin+UPCP
# Method: Immunofluorescence was performed as described previously. Cells were plated on cover slips in 12-well plates, left overnight before the treatment. Cells were fixed in 1% formaldehyde in culture medium for 10 min at 37 °C and permeabilized with 0.2% Triton X-100 in PBS for 10 min at room temperature. Cells were washed twice in PBS and blocked for 1 h with 5% BSA in PBS and then incubated with primary antibodies at 4 °C overnight, washed three times in PBS and incubated with secondary antibodies for 1 h at room temperature. Cell nuclei were counterstained with a 500 nM concentration of 4,6-diamidino-2-phenylindole (DAPI) (Sigma). Images were acquired by a fluorescence microscope (OLYMPUS FV-1000, Carl Zeiss LSM880 or Leica DMi8) and analyzed with software NIS-Elements AR v.5.0.1 (Nikon), FLUOVIEW v.4.2b (OLYMPUS), ZEN v.2.3 SP1 (Carl Zeiss) and Leica Application Suite X v.3.6.0.24 (Leica). Cells were quantified by investigators who were blinded to the identity of the analyzed cell.
# [6] = system: p53, IL-6 and p21 in HGADFN003 cells; assay: Western blot of p53, IL-6 and p21 in HGADFN003 cells; format: cell-based, human
# Method: Western blot was performed as previously described. Cells were lysed in 1× Laemmli sample buffer after washing twice in cold PBS without calcium and magnesium. Protein concentrations were determined using the bicinchoninic acid (BCA) protein assay. Protein lysates were subjected to SDS–PAGE, transferred to 0.45-μm pore size hydrophobic PVDF transfer membrane (Merck Millipore), detected with the appropriate primary antibodies coupled with horseradish peroxidase-conjugated corresponding secondary antibodies, and visualized using enhanced chemiluminescence ECL reagent (GE Healthcare). The Tanon 5500 high-definition low-illumination CCD system (Tanon FLI Capture v.1.02) was used to capture chemiluminescent signals.
# [7] = system: BUBR1 binding to BUB3 and CDC20; assay: CoIP of BUBR1 and SAC proteins BUB3 and CDC20 in HEK-293T cells; format: cell-based; conditions: UPCP 18 μM, nocodazole 200 ng ml^–1
# Method: as §1
# T1 sequence (O60566 whole entry): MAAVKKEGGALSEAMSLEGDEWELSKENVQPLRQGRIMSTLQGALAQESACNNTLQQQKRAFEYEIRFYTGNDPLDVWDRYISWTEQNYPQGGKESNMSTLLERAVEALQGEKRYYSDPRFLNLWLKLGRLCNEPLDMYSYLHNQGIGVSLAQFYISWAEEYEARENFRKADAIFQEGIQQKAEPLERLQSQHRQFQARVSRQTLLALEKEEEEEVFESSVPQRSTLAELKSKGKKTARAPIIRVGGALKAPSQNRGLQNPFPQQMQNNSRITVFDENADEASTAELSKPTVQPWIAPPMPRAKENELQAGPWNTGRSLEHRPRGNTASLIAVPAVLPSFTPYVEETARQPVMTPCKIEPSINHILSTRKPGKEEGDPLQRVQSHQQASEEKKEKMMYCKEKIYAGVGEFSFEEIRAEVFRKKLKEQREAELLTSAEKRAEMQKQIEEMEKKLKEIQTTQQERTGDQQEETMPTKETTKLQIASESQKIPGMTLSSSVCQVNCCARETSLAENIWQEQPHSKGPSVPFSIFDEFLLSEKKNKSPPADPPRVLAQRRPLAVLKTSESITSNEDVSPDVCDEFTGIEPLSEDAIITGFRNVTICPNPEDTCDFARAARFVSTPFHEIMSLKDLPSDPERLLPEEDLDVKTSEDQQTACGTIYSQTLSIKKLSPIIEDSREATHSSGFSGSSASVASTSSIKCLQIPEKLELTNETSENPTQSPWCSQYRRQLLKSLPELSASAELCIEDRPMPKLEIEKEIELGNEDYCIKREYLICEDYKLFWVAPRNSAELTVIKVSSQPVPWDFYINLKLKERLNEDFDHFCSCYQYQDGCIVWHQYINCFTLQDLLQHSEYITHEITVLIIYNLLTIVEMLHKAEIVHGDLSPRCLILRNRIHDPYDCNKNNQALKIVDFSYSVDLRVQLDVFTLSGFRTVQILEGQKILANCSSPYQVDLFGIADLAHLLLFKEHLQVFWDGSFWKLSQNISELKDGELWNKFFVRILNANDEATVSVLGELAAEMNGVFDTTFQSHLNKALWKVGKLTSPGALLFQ
substance,measurement,setting,value
"H-YGRKKRRQRRRYNLRSRTVLCGTCGQPADKASASGSGAQSPQNCSIM-OH (cysteines drawn unpaired) [UPCP, unique progerin C-terminal peptide]",BUBR1 mRNA level with Act D,[1],mRNA levels of BUBR1 were significantly increased
same,interaction between progerin and BUBR1,[2],interfered with the interaction between progerin and BUBR1
same,direct combination with BUBR1,[3],could combine with BUBR1 directly in vitro
same,PTBP1 enrichment on BUBR1-3'UTR (2-ΔΔCt),[4]; replicate 1,9.032
same,PTBP1 enrichment on BUBR1-3'UTR (2-ΔΔCt),[4]; replicate 2,10.1759
same,PTBP1 enrichment on BUBR1-3'UTR (2-ΔΔCt),[4]; replicate 3,11.8972
same,binding of PTBP1 to BUBR1 mRNA 3ʹ-UTR,"[4]; RIP and RNA pulldown, HEK-293T with or without UPCP",promoted PTBP1 to bind
same,"γH2AX foci per cell, n>10",[5]; replicate 1,75%
same,"γH2AX foci per cell, n≤10",[5]; replicate 1,25%
same,"γH2AX foci per cell, n>10",[5]; replicate 2,69%
same,"γH2AX foci per cell, n≤10",[5]; replicate 2,31%
same,"γH2AX foci per cell, n>10",[5]; replicate 3,61%
same,"γH2AX foci per cell, n≤10",[5]; replicate 3,39%
same,γH2AX-53BP1 foci,[5]; IMR90-progerin cells,lower level of γH2AX-53BP1 foci
same,"level of p53, IL-6 and p21",[6],"decreased level of p53, IL-6 and p21"
same,binding of BUBR1 to SAC proteins (BUB3 or CDC20),[7],did not block the binding of BUBR1 to other proteins such as PTBP1 or other SAC proteins (BUB3 or CDC20)

# Reference: publication PMC10154249, “Unique progerin C-terminal peptide ameliorates Hutchinson–Gilford progeria syndrome phenotype by rescuing BUBR1” (Nature Aging, 2023)
